The assay has as its target T1, sGC α1/β1 heterodimer (Homo sapiens, UniProt Q02108+Q02153).
T1 construct: expressed in transfected cells
T1 sequence (Q02108 1-690): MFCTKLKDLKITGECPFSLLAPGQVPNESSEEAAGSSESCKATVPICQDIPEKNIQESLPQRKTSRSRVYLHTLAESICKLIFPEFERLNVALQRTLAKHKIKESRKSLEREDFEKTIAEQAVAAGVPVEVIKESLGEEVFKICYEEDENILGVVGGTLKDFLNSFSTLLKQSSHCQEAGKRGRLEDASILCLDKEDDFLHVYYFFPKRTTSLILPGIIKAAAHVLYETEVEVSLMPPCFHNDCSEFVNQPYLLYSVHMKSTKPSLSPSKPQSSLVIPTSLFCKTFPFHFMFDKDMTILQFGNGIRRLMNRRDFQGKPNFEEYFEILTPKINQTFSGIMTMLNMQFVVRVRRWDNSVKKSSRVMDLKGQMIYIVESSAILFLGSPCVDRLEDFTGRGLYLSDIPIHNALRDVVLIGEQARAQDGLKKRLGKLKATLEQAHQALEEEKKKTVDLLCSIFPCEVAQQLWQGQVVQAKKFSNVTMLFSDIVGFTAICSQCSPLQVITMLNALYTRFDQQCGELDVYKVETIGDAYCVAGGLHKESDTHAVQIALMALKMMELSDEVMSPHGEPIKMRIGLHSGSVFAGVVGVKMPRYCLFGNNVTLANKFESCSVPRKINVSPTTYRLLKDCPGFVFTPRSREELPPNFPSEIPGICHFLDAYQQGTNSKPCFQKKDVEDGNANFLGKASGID
T1 sequence (Q02153 1-619): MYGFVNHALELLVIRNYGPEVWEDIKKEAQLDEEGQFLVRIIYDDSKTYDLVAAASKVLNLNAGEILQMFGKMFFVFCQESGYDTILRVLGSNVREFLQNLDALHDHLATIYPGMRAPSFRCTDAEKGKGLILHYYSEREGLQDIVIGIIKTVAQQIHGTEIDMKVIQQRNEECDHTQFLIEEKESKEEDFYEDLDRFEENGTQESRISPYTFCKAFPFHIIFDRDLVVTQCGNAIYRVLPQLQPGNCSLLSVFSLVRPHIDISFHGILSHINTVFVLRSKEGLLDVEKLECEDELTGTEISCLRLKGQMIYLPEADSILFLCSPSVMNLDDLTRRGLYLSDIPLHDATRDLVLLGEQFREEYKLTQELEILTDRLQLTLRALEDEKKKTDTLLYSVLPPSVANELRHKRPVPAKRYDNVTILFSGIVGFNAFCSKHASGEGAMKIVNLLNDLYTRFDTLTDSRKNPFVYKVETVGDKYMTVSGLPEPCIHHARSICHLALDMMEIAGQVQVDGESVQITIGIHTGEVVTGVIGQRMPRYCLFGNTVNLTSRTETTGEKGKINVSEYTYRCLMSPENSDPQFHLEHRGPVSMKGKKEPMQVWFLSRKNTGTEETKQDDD
The experiment in a line: Cell-Based sGC Functional Assay (CASA Assay). Particulars: CHO-K1/sGC cells; for EC50: intracellular cGMP by HTRF, 1 hr at 37° C., IP from 4P fit, presence or absence of 1 μM DETA-NO not given; for Emax: cGMP as percentage of maximum cGMP production of Compound A (=100% activation), read-out: % ACT (percent activation). From the text:
Biological Assays: Cell-Based sGC Functional Assay (CASA Assay)
sGC is a heme-containing enzyme that converts GTP to secondary messenger cGMP. Increases in cGMP levels affect several physiological processes including vasorelaxation through multiple downstream pathways. […] Heme-dependent activators (HDAs) preferentially activate sGC containing a ferrous heme group. To determine the effect of sGC activators on enzyme activity, the CASA assay was developed to monitor the generation of cGMP in a cell line that stably expresses the heterodimeric sGC protein.
A CHO-K1 cell line stably expressing the sGC α1/β1 heterodimer was generated using a standard transfection protocol. CHO-K1 cells were transfected with plasmids pIREShyghsGCα1 and pIRESneo-hsGCβ1 simultaneously using FUGENE reagent. Clones that stably express both subunits were selected with hygromycin and neomycin for ˜2 weeks. Clone #7 was chosen for the assay and was designated CHO-K1/sGC. CHO-K1/sGC cells were maintained in F-K12 medium containing 10% heat-inactivated Fetal Bovine Serum (FBS), 100 μg/mL penicillin/streptomycin, 0.5 mg/mL hygromycin and 0.25 mg/mL G418. The cells were then cryopreserved in LN2. On the day of the assay, cells were thawed and resuspended in EBSS Assay Buffer (EAB, Sigma, E3024) supplemented with 5 mM MgCl2, 10 mM HEPES (4-(2-hydroxyethyl)piperazine-1-ethanesulfonic acid) and 0.05% BSA (bovine serum albumin) and cell density was then adjusted to 4×10^5/mL with EAB. IBMX (3-isobutyl-1-methylxanthin, 0.5 mM) was added to inhibit degradation of cGMP. Compounds were diluted from DMSO stock solutions and added to the assay at a final DMSO concentration of 2.5%. Cells were incubated with compounds in the presence and absence of 1 μM of Diethylenetriamine/nitric oxide adduct (DETA-NO; Sigma, 17018) for 1 hr at 37° C. At the end of the incubation period, the reaction was terminated and the cells were lysed with the detection reagents from Cisbio Kits. The level of intracellular cGMP was determined using an HTRF-based assay kit (CisBio, 62GM2PEC), which detects the displacement of a fluorescence labeled cGMP from its specific antibody. The cGMP produced by test compounds was directly compared to the maximum cGMP production (this value was set to equal 100% activation) of the published sGC-HDA Compound A:
[drawing 123] (Example 1 in WO 2010/065275, published Jun. 10, 2010). The test compounds' activity was then expressed as a percentage of Compound A, the standard in every experiment. This percent activation was calculated either in the presence or absence of DETA-NO which was then plotted. IP and maximum fold induction was derived using ADA analysis software for 4P fit.
(Time-resolved FRET reads energy transfer from a long-lived donor to a nearby acceptor.)

The EC50 is the concentration giving half of the maximal effect. Consider `[2H]C([2H])([2H])n1ncc2c(-c3nc(N)c4c(n3)NC(=O)C4(C)c3ccc(C#N)cc3)nc(CCC(F)(F)C(F)(F)F)nc21` (single isomer, unassigned) [Example 47, 4-(4-Amino-5-methyl-2-(6-(3,3,4,4,4-pentafluorobutyl)-1-trideuteriomethyl-1H-pyrazolo[3,4-d]pyrimidin-4-yl)-6-oxo-6,7-dihydro-5H-pyrrolo[2,3-d]pyrimidin-5-yl)benzonitrile], for which the EC50 amounted to 0.03 µM and the Emax was determined as 95%.
The corresponding values for `[2H]C([2H])([2H])n1ncc2c(-c3nc(N)c4c(n3)NC(=O)C4(C)c3ccc(O)cc3)nc(CCC(F)(F)C(F)(F)F)nc21` (single isomer, unassigned) [Example 43, 4-Amino-5-(4-hydroxyphenyl)-5-methyl-2-(6-(3,3,4,4,4-pentafluorobutyl)-1-trideuteriomethyl-1H-pyrazolo[3,4-d]pyrimidin-4-yl)-5H-pyrrolo[2,3-d]pyrimidin-6(7H)-one] are 0.209 µM and 110%.
With `[2H]C([2H])([2H])n1ncc2c(-c3nc(N)c4c(n3)NC(=O)C4(C(=O)Nc3ccccn3)C3CC3)nc(CCC(F)(F)C(F)(F)F)nc21` (single isomer, unassigned) [Example 41, 4-Amino-5-cyclopropyl-2-(6-(3,3,4,4,4-pentafluorobutyl)-1-trideuteriomethyl-1H-pyrazolo[3,4-d]pyrimidin-4-yl)-6-oxo-N-(pyridin-2-yl)-6,7-dihydro-5H-pyrrolo[2,3-d]pyrimidine-5-carboxamide], the EC50 came to 0.077 µM and the Emax stood at 100%.
The corresponding values for `CC(C)NC1(C)C(=O)Nc2nc(-c3nc(CCC(F)(F)C(F)(F)F)nc4c3cnn4C)nc(N)c21` (centres unmarked) [Example 55, 4-Amino-5-(isopropylamino)-5-methyl-2-(1-methyl-6-(3,3,4,4,4-pentafluorobutyl)-1H-pyrazolo[3,4-d]pyrimidin-4-yl)-5H-pyrrolo[2,3-d]pyrimidin-6(7H)-one] are 0.119 µM and 118%.
The corresponding values for `Cn1ncc2c(-c3nc(N)c4c(n3)NC(=O)C4(C)C(N)=O)nc(CCC(F)(F)C(F)(F)F)nc21` (single isomer, unassigned) [Example 30, 4-Amino-5-methyl-2-(1-methyl-6-(3,3,4,4,4-pentafluorobutyl)-1H-pyrazolo[3,4-d]pyrimidin-4-yl)-6-oxo-6,7-dihydro-5H-pyrrolo[2,3-d]pyrimidine-5-carboxamide] are 0.245 µM and 84%.
Consider `Cn1ccc2c(-c3nc(N)c4c(n3)NC(=O)C4(C)C)nc(CCC(F)(F)C(F)(F)F)nc21` [Example 63, 4-Amino-5,5,7′-trimethyl-2′-(3,3,4,4,4-pentafluorobutyl)-5H,7′H-[2,4′-bipyrrolo[2,3-d]pyrimidin]-6(7H)-one], for which the midpoint of the response, the EC50, lay at 0.502 µM and the Emax is 76%.
The corresponding values for `COC1(C)C(=O)Nc2nc(-c3nc(CCC(F)(F)C(F)(F)F)nc4c3cnn4C)nc(N)c21` (single isomer, unassigned) [Example 56, 4-Amino-5-methoxy-5-methyl-2-(1-methyl-6-(3,3,4,4,4-pentafluorobutyl)-1H-pyrazolo[3,4-d]pyrimidin-4-yl)-5H-pyrrolo[2,3-d]pyrimidin-6(7H)-one] are 0.044 µM and 104%.
With `[2H]C([2H])([2H])n1ncc2c(-c3nc(N)c4c(n3)NC(=O)C4(C)C#C)nc(CCC(F)(F)C(F)(F)F)nc21` (single isomer, unassigned) [Example 22, 4-Amino-5-ethynyl-5-methyl-2-(6-(3,3,4,4,4-pentafluorobutyl)-1-trideuteriomethyl-1H-pyrazolo[3,4-d]pyrimidin-4-yl)-5H-pyrrolo[2,3-d]pyrimidin-6(7H)-one], a half-maximal effect (EC50) was put at 0.046 µM and the Emax is 128%.
The corresponding values for `[2H]C([2H])([2H])n1ncc2c(-c3nc(N)c4c(n3)NC(=O)C4(C)C3CC3)nc(CCC(F)(F)C(F)(F)F)nc21` (single isomer, unassigned) [Example 17, 4-Amino-5-cyclopropyl-5-methyl-2-(6-(3,3,4,4,4-pentafluorobutyl)-1-trideuteriomethyl-1H-pyrazolo[3,4-d]pyrimidin-4-yl)-5H-pyrrolo[2,3-d]pyrimidin-6(7H)-one] are 0.286 µM and 104%.
The corresponding values for `CCn1ncc2c(-c3nc(N)c4c(n3)NC(=O)C4(C)c3ccc(F)cc3)nc(CCC(F)(F)C(F)(F)F)nc21` (single isomer, unassigned) [Example 19, 4-Amino-2-(1-ethyl-6-(3,3,4,4,4-pentafluorobutyl)-1H-pyrazolo[3,4-d]pyrimidin-4-yl)-5-(4-fluorophenyl)-5-methyl-5H-pyrrolo[2,3-d]pyrimidin-6(7H)-one] are 0.053 µM and 119%.
`[2H]C([2H])([2H])n1ncc2c(-c3nc(N)c4c(n3)NC(=O)C4(CCCC)C3CC3)nc(CCC(F)(F)C(F)(F)F)nc21` (single isomer, unassigned) [Example 25, 4-Amino-5-butyl-5-cyclopropyl-2-(6-(3,3,4,4,4-pentafluorobutyl)-1-trideuteriomethyl-1H-pyrazolo[3,4-d]pyrimidin-4-yl)-5H-pyrrolo[2,3-d]pyrimidin-6(7H)-one]: the EC50 worked out at 0.049 µM and the Emax is 80%.
The corresponding values for `C#CC1(C2CC2)C(=O)Nc2nc(-c3nc(CCC(F)(F)C(F)(F)F)nc4c3cnn4C)nc(N)c21` (single isomer, unassigned) [Example 24, 4-Amino-5-cyclopropyl-5-ethynyl-2-(1-methyl-6-(3,3,4,4,4-pentafluorobutyl)-1H-pyrazolo[3,4-d]pyrimidin-4-yl)-5H-pyrrolo[2,3-d]pyrimidin-6(7H)-one] are 0.105 µM and 120%.
The corresponding values for `Cn1ncc2c(-c3nc(N)c4c(n3)NC(=O)C4(C)NCC3CC3)nc(CCC(F)(F)C(F)(F)F)nc21` (centres unmarked) [Example 54, 4-Amino-5-((cyclopropylmethyl)amino)-5-methyl-2-(1-methyl-6-(3,3,4,4,4-pentafluorobutyl)-1H-pyrazolo[3,4-d]pyrimidin-4-yl)-5H-pyrrolo[2,3-d]pyrimidin-6(7H)-one] are 0.087 µM and 118%.

These data come from patent US9783552B2, “Soluble guanylate cyclase activators” (MERCK SHARP & DOHME CORP., priority 2013, dated 2017).
